Experimental data published in patent US8188081B2, “Methods of treating inflammation using prokineticin 1 receptor antagonists” (Janssen Pharmaceutica, NV, priority 2005, dated 2012).
Several values for one entry are separate records, joined by “and”; a condition that tells them apart may be missing. Equal entries are not always repeated. Entries after “also recorded” stand apart in the source; their conditions may differ.

Assays:
rat ileum = assay: Contractility of isolated rat GI segments ex vivo (myobath organ bath), response to PK1
GPR73 (PK1 receptor) = molecular target: T1, GPR73 (PK1 receptor) (Homo sapiens, UniProt Q8TCW9); assay: PK1 functional assay: screening for PK1 antagonists on the FLIPR (calcium dye) in HEK 293 GPR73 expressing cells; assay type: cell-based; conditions: for IC50 / inhibition at 10 µM / Ca^2+ Mobilization % Inh @10 μM: HEK 293 GPR73 (PK1 receptor) expressing cells, FLIPR; for IC50: PK1 ligand at EC50, read-out: Ca^2+ Mobilization IC50; for inhibition at 10 µM: HEK293, 10 μM compound, read-out: Ca^2+ Mobilization % Inh @10 μM; for Ca^2+ Mobilization % Inh @10 μM: 10 μM compound
T1 construct: expressed in transfected cells; host or cells: HEK 293
T1 sequence (Q8TCW9 whole entry, species assumed): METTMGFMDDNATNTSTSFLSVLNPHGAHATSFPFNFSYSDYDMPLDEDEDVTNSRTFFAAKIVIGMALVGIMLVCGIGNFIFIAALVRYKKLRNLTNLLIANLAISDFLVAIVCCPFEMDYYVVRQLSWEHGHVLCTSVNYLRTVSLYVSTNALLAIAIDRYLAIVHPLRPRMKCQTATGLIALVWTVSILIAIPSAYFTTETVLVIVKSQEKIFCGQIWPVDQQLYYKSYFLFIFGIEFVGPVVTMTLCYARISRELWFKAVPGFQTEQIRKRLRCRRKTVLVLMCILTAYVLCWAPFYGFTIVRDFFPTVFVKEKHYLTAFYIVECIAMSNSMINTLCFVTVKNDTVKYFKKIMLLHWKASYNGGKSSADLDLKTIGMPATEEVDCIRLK
Description: At a time of 24 h prior to running the assay, in cell culture media (DMEM containing high Glucose and L-glutamine, 10% FBS, 1% Pen/Streptomycin, 1% Sodium Pyruvate, 20 mM HEPES, Zeocin 200 mg/L), 100 μL of 1.3*10^6/ml HEK 293 GPR73 (PK1 receptor) expressing cells were plated in a 96 well poly-d-lysine coated plate (Costar), and incubated at 37° C. and 5% CO2. On the day in which the assay was run, the media was removed and 200 μL of 5× Calcium Plus Dye (Molecular Devices) which was previously resuspended with 200 mL of assay buffer [HBSS w/Ca^2+ and Mg^2+ w/o phenol red, 20 mM HEPES, 0.1% BSA, 10 mL probenecid (710 mg probenecid in 5 mL of 1N NaOH, to which was then added 5 mL HBSS containing 20 mM HEPES)] was added to each well of the 96-well plate. The plate was incubated at 37° C. and 5% CO2 for 30 min in dark. The plate was removed and allowed to reach RT for 15 min in the dark. The assay was then run on the FLIPR. […] Baseline is described as the amount of relative fluorescence read when buffer alone is added to cells. Baseline was subtracted from all wells. Percent of control was calculated as follows: (Baseline subtracted well value is divided by baseline subtracted max value)*100. Percent inhibition is 100 minus the percent of control value.
IC50 values were calculated using GraphPad Prism.
Table 2 includes data generated from the PK1 functional assay described in Example 2.

[1] = molecular target: T2, basolateral Na+-K+-2Cl- co-transporter (Rattus norvegicus, UniProt E9PTX9); conditions: bumetanide 500 μM
T2 sequence (E9PTX9 1-1203): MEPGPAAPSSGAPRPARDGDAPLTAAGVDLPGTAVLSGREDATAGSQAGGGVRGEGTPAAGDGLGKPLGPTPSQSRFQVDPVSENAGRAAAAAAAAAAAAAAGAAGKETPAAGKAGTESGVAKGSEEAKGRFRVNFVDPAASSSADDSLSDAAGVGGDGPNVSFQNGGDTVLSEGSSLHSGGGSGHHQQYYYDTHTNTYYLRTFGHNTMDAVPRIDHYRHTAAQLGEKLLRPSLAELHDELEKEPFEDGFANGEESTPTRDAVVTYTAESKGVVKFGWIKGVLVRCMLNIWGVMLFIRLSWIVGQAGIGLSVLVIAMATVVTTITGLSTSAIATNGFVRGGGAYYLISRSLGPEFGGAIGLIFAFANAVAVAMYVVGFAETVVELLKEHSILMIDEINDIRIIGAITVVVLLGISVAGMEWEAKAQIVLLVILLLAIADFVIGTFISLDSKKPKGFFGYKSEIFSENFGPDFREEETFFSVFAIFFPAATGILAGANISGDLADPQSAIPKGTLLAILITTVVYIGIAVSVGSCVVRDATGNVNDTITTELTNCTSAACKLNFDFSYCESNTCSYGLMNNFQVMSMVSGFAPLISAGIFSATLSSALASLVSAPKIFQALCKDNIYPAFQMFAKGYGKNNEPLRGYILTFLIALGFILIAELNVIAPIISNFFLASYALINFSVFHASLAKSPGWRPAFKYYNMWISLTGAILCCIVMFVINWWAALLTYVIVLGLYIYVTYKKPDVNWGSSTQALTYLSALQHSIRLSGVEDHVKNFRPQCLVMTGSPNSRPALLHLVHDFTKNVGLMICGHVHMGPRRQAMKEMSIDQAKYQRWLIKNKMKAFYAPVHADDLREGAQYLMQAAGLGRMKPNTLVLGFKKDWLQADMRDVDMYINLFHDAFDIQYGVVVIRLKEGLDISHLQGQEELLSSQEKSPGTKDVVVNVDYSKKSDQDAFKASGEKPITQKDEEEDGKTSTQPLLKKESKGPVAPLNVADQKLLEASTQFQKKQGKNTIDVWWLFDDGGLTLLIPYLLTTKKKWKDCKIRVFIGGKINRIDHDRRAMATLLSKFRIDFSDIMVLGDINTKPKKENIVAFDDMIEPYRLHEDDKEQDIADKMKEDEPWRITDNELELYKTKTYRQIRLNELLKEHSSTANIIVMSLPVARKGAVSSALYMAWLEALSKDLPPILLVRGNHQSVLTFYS
Description: Methodology. The basic methodology for Using-type ion flux chambers used in these studies was the same as that described in detail above with the following modifications to the experimental protocol. To determine the mechanism of action of the pro-secretory action of PK1 on the epithelium, three separate approaches were utilized to abolish electrogenic chloride ion or bicarbonate ion transport across the epithelium. […] The second approach involved replacement of all chloride ions in the physiological buffer solution used to maintain living tissues in the Using chambers, thus substituting a chloride-free KRB solution by an equimolar substitution of isethionate and acetate salts for the chloride salts listed in the standard KRB recipe above. The third approach involved replacement of all bicarbonate ions in the physiological buffer solution, thus substituting a bicarbonate-free KRB solution by an equimolar substitution of Piperazine-N,N′-bis(2-ethanesulfonic acid) (PIPES) for the bicarbonate salt, and addition of 1 mM acetazolamide, a blocker of intracellular carbonic anhydrase, to prevent bicarbonate production by the enterocyte.

## CN1[C@@H]2CC[C@H]1C[C@@H](OC(=O)C(CO)c1ccccc1)C2 (stereo partly shown) [Atropine, reference compound]
Rat ileum
  effect on the early component of the PK1-evoked contractile response: attenuate

## N=C(N)NCCNc1nc(=O)n(Cc2ccccc2)c(=O)n1Cc1ccc(F)cc1 [Cpd 1]
GPR73 (PK1 receptor)
  IC50: > 10 µM

## N=C(N)NCCNc1nc(=O)n(Cc2ccccc2)c(=O)n1Cc1cccc(C(F)(F)F)c1 [Cpd 7]
GPR73 (PK1 receptor)
  IC50: > 10 µM

## COc1ccc(Cn2c(NCCONC(=N)N)nc(=O)n(Cc3ccccc3)c2=O)cc1 [Cpd 10]
GPR73 (PK1 receptor)
  inhibition at 10 µM: 33%
  IC50: > 10 µM

## N=C(N)NCCNc1nc(=O)n(Cc2ccccc2)c(=O)n1Cc1ccncc1 [Cpd 11]
GPR73 (PK1 receptor)
  IC50: > 10 µM

## COc1ccc(Cn2c(NCCNC(=N)N)nc(=O)n(Cc3ccccc3OC)c2=O)cc1 [Cpd 21]
GPR73 (PK1 receptor)
  IC50: > 10 µM

## COc1ccc(Cn2c(N[C@H]3CCCC[C@@H]3NC(=N)N)nc(=O)n(Cc3ccc(Cl)c(Cl)c3)c2=O)cc1 [Cpd 43]
GPR73 (PK1 receptor)
  IC50: > 10 µM

## COc1ccc(Cn2c(NCCNC(=N)NCCc3ccccc3)nc(=O)n(Cc3ccc(Cl)c(Cl)c3)c2=O)cc1 [Cpd 65]
GPR73 (PK1 receptor)
  Ca^2+ Mobilization % Inh @10 μM: 88%

## N=C(N)NCCNc1nc(=O)n(Cc2ccc(F)cc2)c(=O)n1Cc1ccc([N+](=O)[O-])cc1 [Cpd 87]
GPR73 (PK1 receptor)
  IC50: > 10 µM

## COc1ccc(Cn2c(NCCNC(=N)N)nc(=O)n(Cc3cccc(N)c3)c2=O)cc1 [Cpd 96]
GPR73 (PK1 receptor)
  IC50: > 10 µM

## COc1ccc(Cn2c(NCCNC(=N)N)nc(=O)n(Cc3cccc(C#N)c3)c2=O)cc1 [Cpd 98]
GPR73 (PK1 receptor)
  IC50: > 10 µM

## COc1ccc(Cn2c(NCCNC(=N)N)nc(=O)n(Cc3ccc(C(=O)O)cc3)c2=O)cc1 [Cpd 101, 4-[4-(2-Guanidino-ethylamino)-3-(4-methoxy-benzyl)-2,6-dioxo-3,6-dihydro-2H-[1,3,5]triazin-1-ylmethyl]-benzoic acid]
GPR73 (PK1 receptor)
  IC50: > 10 µM

## COc1ccc(Cn2c(NCCN(C(=N)N)c3ccccn3)nc(=O)n(Cc3ccc(F)cc3)c2=O)cc1 [Cpd 104, N-{2-[5-(4-Fluoro-benzyl)-1-(4-methoxy-benzyl)-4,6-dioxo-1,4,5,6-tetrahydro-[1,3,5]triazin-2-ylamino]-ethyl}-N-pyridin-2-yl-guanidine]
GPR73 (PK1 receptor); 10 µM
  Ca^2+ Mobilization % Inh @10 μM: 99%

## COc1ccc(Cn2c(NCCNC(=N)NCCc3ccccn3)nc(=O)n(Cc3ccc(F)cc3)c2=O)cc1 [Cpd 105]
GPR73 (PK1 receptor)
  Ca^2+ Mobilization % Inh @10 μM: 100%

## COc1ccc(Cn2c(NCCNC(=N)N)nc(=O)n(CC(C)(C)C)c2=O)cc1 [Cpd 123]
GPR73 (PK1 receptor)
  IC50: > 10 µM

## COc1ccc(Cn2c(N[C@@H](C)[C@H](C)NC(=N)N)nc(=O)n(Cc3ccc(F)cc3)c2=O)cc1 [Cpd 136]
GPR73 (PK1 receptor)
  IC50: > 10 µM

## COc1ccc(Cn2c(N[C@H](C)[C@@H](C)NC(=N)N)nc(=O)n(Cc3ccc(F)cc3)c2=O)cc1 [Cpd 137]
GPR73 (PK1 receptor)
  inhibition at 10 µM: 98%

## COc1ccc(Cn2c(=O)nc(NCCNC(=N)N)n(Cc3ccc(O)cc3)c2=O)cc1 [Cpd 143, N-{2-[1-(4-Hydroxy-benzyl)-5-(4-methoxy-benzyl)-4,6-dioxo-1,4,5,6-tetrahydro-[1,3,5]triazin-2-ylamino]-ethyl}-guanidine]
GPR73 (PK1 receptor)
  inhibition at 10 µM: 101%

## COc1ccc(Cn2c(N[C@H]3CCCC[C@@H]3NC(=N)N)nc(=O)n(Cc3ccc(Cl)c(Cl)c3)c2=O)cc1 [JNJ 28611921]
GPR73 (PK1 receptor); cellular assay
  activity at the PK1 receptor: lack significant activity; also recorded: not active

## NC1=N[C@H](O)[C@H]2[C@H]3O[C@]4(O)O[C@@H]([C@@H](O)[C@@]2(N1)[C@@H]4O)[C@]3(O)CO [Tetrodotoxin, reference compound]
Rat ileum
  effect on the early component of the PK1-evoked contractile response: attenuate

## CCCCNc1cc(C(=O)O)cc(S(N)(=O)=O)c1Oc1ccccc1 [bumetanide, Bumetanide]
[1]
  effect on baseline G: did not significantly change
[1]; n=5, not significantly different from DMSO vehicle
  change in baseline Isc after addition to the serosal bathing solution: −7.1+/−8.6 μA/cm^2
[1]; serosal
  attenuation of the PK1-evoked increase in Isc: > 90%

## N-Benzoyl-N-{2-[5-(4-fluoro-benzyl)-1-(4-methoxy-benzyl)-4,6-dioxo-1,4,5,6-tetrahydro-[1,3,5]triazin-2-ylamino]-ethyl}-guanidine [Cpd 134]
GPR73 (PK1 receptor)
  Ca^2+ Mobilization % Inh @10 μM: 97, 97%
  IC50: 0.019 µM and 0.028 µM

## N-{2-[5-(3,4-Dichloro-benzyl)-1-(4-methoxy-benzyl)-4,6-dioxo-1,4,5,6-tetrahydro-[1,3,5]triazin-2-ylamino]-ethyl}-N-isopropyl-guanidine [Cpd 58]
GPR73 (PK1 receptor); 10 µM
  Ca^2+ Mobilization % Inh @10 μM: 102% and 99%

## N-{2-[5-(4-Fluoro-benzyl)-1-(4-methoxy-benzyl)-4,6-dioxo-1,4,5,6-tetrahydro-[1,3,5]triazin-2-ylamino]-ethyl}-N-(2-fluoro-phenyl)-guanidine [Cpd 118]
GPR73 (PK1 receptor); 10 µM
  Ca^2+ Mobilization % Inh @10 μM: 98% and 102%
GPR73 (PK1 receptor)
  IC50: 0.006 µM

## N-{2-[5-(4-Fluoro-benzyl)-1-(4-methoxy-benzyl)-4,6-dioxo-1,4,5,6-tetrahydro-[1,3,5]triazin-2-ylamino]-ethyl}-N-(4-fluoro-phenyl)-guanidine [Cpd 119]
GPR73 (PK1 receptor); 10 µM
  Ca^2+ Mobilization % Inh @10 μM: 102% and 99%
GPR73 (PK1 receptor)
  IC50: 0.006 µM and 0.012 µM

## N-{2-[5-(4-Fluoro-benzyl)-1-(4-methoxy-benzyl)-4,6-dioxo-1,4,5,6-tetrahydro-[1,3,5]triazin-2-ylamino]-ethyl}-N-amino-guanidine [Cpd 93]
GPR73 (PK1 receptor)
  Ca^2+ Mobilization % Inh @10 μM: 92%
  IC50: 0.227 µM

## N-{2-[5-Benzyl-1-(4-methoxy-benzyl)-4,6-dioxo-1,4,5,6-tetrahydro-[1,3,5]triazin-2-ylamino]-ethyl}-oxyguanidine [Cpd 27]
GPR73 (PK1 receptor)
  Ca^2+ Mobilization % Inh @10 μM: 55%
